According to ChEMBL document CHEMBL4613271, “Application of Atypical Acetyl-lysine Methyl Mimetics in the Development of Selective Inhibitors of the Bromodomain-Containing Protein 7 (BRD7)/Bromodomain-Containing Protein 9 (BRD9) Bromodomains” (J Med Chem, 2020):
Converted amounts (≈) assume the structure as drawn. The source made the active and inactive calls. The rule behind the calls is not given here.

What was measured:
[1] = target: T1, Bromodomain-containing protein 7 (Homo sapiens, UniProt Q9NPI1); assay: Binding affinity to BRD7 (unknown origin)
T1 sequence (Q9NPI1 whole entry): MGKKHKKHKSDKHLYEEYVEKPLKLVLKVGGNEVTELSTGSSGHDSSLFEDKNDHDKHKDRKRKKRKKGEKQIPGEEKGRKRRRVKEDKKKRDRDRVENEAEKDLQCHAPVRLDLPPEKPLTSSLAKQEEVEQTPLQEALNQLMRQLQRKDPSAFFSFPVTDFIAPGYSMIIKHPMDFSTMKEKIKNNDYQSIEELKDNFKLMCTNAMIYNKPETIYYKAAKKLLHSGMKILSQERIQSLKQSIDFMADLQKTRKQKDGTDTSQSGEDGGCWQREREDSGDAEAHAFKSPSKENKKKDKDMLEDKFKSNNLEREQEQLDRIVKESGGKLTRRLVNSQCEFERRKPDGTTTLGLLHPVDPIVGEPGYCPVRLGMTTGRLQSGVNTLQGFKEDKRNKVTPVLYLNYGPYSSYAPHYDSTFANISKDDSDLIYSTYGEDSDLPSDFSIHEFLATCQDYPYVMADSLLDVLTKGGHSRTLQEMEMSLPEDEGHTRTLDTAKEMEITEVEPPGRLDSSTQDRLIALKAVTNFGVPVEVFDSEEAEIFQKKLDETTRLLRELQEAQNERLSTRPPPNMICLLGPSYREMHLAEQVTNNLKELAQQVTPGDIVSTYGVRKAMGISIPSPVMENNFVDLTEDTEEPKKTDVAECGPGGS

[2] = target: T2, Bromodomain-containing protein 9 (Homo sapiens, UniProt Q9H8M2)
T2 sequence (Q9H8M2 whole entry): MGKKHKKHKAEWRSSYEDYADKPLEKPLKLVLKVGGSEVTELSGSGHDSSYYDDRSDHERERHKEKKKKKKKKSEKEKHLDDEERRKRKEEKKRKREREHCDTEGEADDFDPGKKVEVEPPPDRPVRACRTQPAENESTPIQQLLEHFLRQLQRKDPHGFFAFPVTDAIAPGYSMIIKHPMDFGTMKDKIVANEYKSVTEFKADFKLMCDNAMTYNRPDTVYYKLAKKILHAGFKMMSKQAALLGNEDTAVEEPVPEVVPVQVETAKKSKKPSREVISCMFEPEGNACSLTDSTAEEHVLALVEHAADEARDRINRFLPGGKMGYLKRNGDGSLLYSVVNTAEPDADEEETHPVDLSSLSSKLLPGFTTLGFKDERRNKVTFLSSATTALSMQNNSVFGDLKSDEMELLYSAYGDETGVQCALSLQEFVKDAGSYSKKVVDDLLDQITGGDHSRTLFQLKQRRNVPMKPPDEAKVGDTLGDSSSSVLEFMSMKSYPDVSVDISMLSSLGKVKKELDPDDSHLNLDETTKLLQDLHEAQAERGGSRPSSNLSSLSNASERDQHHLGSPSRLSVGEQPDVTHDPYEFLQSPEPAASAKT

[3] = target: T2, Bromodomain-containing protein 9; assay: Binding affinity to BRD9 (unknown origin) N-terminal bromodomain by TR-FRET assay
[4] = target: T3, Bromodomain-containing protein 4 (Homo sapiens, UniProt O60885); assay: Binding affinity to BRD4 (1) (unknown origin) N-terminal bromodomain by TR-FRET assay
[5] = Chromatographic hydrophobicity index, logD of the compound at pH 7.4 by HPLC analysis; type: physicochemical; settings: buffer
[6] = target: T1, Bromodomain-containing protein 7; assay: Binding affinity to human partial length BRD7 (L125 to R254 residues) expressed in mammalian expression system by BROMOscan assay
Peregrin = target: T4, Peregrin (Homo sapiens, UniProt P55201); assay: Binding affinity to human partial length BRPF1 (E627 to G740 residues) expressed in bacterial expression system by BROMOscan assay
T4 sequence (P55201 whole entry): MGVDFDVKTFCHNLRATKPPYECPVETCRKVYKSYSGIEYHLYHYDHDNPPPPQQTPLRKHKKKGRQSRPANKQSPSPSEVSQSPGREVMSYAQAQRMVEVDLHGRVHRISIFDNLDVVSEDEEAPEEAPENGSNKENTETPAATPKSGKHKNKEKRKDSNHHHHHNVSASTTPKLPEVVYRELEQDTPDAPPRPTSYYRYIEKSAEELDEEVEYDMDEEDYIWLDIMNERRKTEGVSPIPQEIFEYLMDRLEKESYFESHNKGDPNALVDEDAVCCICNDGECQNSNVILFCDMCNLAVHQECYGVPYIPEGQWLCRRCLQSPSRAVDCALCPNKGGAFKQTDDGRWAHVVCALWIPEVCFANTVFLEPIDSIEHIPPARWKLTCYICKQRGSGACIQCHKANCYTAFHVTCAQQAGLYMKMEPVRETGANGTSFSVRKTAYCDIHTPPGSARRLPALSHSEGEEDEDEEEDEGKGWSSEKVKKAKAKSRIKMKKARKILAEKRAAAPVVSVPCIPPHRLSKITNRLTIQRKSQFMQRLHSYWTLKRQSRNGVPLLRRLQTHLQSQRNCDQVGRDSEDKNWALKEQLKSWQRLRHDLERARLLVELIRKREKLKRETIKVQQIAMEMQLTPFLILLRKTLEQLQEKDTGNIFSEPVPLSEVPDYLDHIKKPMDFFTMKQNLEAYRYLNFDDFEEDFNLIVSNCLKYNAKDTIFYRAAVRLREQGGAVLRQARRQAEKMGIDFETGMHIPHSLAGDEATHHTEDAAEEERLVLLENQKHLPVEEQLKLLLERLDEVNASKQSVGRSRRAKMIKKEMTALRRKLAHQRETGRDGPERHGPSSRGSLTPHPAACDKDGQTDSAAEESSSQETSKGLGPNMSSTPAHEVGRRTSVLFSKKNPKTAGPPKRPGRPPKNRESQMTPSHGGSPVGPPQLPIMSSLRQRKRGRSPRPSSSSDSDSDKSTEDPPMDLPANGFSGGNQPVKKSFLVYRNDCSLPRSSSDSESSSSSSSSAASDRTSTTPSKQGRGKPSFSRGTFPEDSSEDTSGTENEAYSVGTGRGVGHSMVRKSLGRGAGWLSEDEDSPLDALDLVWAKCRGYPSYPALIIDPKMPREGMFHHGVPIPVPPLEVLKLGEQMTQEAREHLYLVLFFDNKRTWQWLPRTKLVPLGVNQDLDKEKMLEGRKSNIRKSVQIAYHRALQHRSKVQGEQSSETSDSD

[7] = Solubility of compound by CLND method; type: physicochemical
[8] = Permeability by PAMPA; type: ADME; settings: read-out: permeability
[9] = target: T3, Bromodomain-containing protein 4; assay: Binding affinity to human partial length BRD4 (1) (N44 to E168 residues) expressed in bacterial expression system by BROMOscan assay
[10] = target: T5, Bromodomain-containing protein 7 (Homo sapiens) (UniProt Q9NPI1); assay: Binding affinity to BRD7 in human HuT78 cells nuclear and chromatin extracts at 10 uM incubated for 45 mins by mass spectrometry based chemoproteomic binding assay; type: cell-based
T5 sequence (whole entry): T1 sequence (Q9NPI1 whole entry)

[11] = target: B-cell CLL/lymphoma 7 protein family member A (Homo sapiens) (UniProt Q4VC05); assay: Binding affinity to BCL7A in human HuT78 cells nuclear and chromatin extracts at 10 uM incubated for 45 mins by mass spectrometry based chemoproteomic binding assay; type: cell-based
[12] = target: B-cell CLL/lymphoma 7 protein family member B (Homo sapiens) (UniProt Q9BQE9); assay: Binding affinity to BCL7B in human HuT78 cells nuclear and chromatin extracts at 10 uM incubated for 45 mins by mass spectrometry based chemoproteomic binding assay; type: cell-based
[13] = target: Protein polybromo-1 (Homo sapiens) (UniProt Q86U86); assay: Binding affinity to PBRM1 in human HuT78 cells nuclear and chromatin extracts at 10 uM incubated for 45 mins by mass spectrometry based chemoproteomic binding assay; type: cell-based
[14] = target: SWI/SNF-related matrix-associated actin-dependent regulator of chromatin subfamily A member 2 (Homo sapiens) (UniProt P51531); assay: Binding affinity to SMARCA2 in human HuT78 cells nuclear and chromatin extracts at 10 uM incubated for 45 mins by mass spectrometry based chemoproteomic binding assay; type: cell-based
[15] = target: SWI/SNF-related matrix-associated actin-dependent regulator of chromatin subfamily A member 4 (Homo sapiens) (UniProt P51532); assay: Binding affinity to SMARCA4 in human HuT78 cells nuclear and chromatin extracts at 10 uM incubated for 45 mins by mass spectrometry based chemoproteomic binding assay; type: cell-based
[16] = target: T2, Bromodomain-containing protein 9; remark: listed apart in the source
Description: Binding affinity to human partial length BRD9 (R130 to V259 residues) expressed in bacterial expression system by BROMOscan assay

Homo sapiens = species: Homo sapiens; assay: Selectivity index, ratio of IC50 for binding affinity to BRD4 (1) (unknown origin) N-terminal bromodomain to IC50 for binding affinity to BRD9 (unknown origin) N-terminal bromodomain
[17] = Drug distribution in human HeLa cells assessed as intracellular influx/efflux ratio by mass spectrometry; type: ADME, cell-based

Sequence of SWI/SNF-related matrix-associated actin-dependent regulator of chromatin subfamily A member 4 (Homo sapiens) (P51532 whole entry): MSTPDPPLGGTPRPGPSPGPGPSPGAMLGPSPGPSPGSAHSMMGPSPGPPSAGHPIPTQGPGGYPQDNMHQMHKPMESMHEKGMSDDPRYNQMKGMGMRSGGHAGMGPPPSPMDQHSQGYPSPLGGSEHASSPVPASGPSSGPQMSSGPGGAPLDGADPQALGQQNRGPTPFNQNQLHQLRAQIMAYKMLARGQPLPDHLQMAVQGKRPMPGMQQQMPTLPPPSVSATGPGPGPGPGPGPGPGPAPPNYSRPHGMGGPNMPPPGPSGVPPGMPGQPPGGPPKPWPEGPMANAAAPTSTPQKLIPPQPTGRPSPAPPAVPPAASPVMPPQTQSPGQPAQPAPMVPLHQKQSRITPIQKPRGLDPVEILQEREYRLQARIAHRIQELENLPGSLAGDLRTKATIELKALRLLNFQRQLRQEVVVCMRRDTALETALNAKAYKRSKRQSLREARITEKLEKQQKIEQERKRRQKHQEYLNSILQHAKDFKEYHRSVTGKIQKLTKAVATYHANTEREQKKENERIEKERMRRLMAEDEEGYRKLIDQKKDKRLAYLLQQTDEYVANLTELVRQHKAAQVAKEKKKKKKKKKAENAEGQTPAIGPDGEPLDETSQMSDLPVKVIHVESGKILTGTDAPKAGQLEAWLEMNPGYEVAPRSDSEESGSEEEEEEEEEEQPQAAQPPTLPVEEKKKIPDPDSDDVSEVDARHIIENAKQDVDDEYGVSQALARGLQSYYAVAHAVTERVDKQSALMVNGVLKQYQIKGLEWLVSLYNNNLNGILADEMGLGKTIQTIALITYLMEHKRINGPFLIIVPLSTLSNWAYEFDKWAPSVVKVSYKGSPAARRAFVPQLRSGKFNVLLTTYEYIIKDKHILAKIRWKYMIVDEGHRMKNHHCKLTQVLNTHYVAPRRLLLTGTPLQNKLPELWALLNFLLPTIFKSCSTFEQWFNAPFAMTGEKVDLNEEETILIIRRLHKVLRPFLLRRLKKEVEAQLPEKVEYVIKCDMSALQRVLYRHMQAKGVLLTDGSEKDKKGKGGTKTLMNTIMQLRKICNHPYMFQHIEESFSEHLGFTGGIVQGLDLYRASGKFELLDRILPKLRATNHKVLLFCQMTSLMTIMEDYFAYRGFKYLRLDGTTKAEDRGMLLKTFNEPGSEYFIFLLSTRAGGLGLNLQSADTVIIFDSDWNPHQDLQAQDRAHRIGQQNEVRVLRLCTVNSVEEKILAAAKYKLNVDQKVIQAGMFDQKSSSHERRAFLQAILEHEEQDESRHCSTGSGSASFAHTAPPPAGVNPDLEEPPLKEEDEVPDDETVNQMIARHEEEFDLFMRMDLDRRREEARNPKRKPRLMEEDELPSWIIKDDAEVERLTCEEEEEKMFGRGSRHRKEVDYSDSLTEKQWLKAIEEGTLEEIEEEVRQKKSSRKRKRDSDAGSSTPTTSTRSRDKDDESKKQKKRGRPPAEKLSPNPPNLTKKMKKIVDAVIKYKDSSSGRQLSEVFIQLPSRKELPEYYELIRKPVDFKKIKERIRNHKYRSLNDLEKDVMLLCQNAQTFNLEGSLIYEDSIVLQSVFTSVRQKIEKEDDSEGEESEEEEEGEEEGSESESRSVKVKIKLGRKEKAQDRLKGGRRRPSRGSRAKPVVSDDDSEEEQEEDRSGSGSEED
Sequence of B-cell CLL/lymphoma 7 protein family member B (Homo sapiens) (Q9BQE9 whole entry): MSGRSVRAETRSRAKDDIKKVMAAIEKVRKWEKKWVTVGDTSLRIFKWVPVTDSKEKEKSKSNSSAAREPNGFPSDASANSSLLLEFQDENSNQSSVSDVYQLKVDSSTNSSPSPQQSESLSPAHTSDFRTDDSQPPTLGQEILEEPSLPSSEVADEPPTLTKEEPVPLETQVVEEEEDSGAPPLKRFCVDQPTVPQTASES
Sequence of Protein polybromo-1 (Homo sapiens) (Q86U86 whole entry): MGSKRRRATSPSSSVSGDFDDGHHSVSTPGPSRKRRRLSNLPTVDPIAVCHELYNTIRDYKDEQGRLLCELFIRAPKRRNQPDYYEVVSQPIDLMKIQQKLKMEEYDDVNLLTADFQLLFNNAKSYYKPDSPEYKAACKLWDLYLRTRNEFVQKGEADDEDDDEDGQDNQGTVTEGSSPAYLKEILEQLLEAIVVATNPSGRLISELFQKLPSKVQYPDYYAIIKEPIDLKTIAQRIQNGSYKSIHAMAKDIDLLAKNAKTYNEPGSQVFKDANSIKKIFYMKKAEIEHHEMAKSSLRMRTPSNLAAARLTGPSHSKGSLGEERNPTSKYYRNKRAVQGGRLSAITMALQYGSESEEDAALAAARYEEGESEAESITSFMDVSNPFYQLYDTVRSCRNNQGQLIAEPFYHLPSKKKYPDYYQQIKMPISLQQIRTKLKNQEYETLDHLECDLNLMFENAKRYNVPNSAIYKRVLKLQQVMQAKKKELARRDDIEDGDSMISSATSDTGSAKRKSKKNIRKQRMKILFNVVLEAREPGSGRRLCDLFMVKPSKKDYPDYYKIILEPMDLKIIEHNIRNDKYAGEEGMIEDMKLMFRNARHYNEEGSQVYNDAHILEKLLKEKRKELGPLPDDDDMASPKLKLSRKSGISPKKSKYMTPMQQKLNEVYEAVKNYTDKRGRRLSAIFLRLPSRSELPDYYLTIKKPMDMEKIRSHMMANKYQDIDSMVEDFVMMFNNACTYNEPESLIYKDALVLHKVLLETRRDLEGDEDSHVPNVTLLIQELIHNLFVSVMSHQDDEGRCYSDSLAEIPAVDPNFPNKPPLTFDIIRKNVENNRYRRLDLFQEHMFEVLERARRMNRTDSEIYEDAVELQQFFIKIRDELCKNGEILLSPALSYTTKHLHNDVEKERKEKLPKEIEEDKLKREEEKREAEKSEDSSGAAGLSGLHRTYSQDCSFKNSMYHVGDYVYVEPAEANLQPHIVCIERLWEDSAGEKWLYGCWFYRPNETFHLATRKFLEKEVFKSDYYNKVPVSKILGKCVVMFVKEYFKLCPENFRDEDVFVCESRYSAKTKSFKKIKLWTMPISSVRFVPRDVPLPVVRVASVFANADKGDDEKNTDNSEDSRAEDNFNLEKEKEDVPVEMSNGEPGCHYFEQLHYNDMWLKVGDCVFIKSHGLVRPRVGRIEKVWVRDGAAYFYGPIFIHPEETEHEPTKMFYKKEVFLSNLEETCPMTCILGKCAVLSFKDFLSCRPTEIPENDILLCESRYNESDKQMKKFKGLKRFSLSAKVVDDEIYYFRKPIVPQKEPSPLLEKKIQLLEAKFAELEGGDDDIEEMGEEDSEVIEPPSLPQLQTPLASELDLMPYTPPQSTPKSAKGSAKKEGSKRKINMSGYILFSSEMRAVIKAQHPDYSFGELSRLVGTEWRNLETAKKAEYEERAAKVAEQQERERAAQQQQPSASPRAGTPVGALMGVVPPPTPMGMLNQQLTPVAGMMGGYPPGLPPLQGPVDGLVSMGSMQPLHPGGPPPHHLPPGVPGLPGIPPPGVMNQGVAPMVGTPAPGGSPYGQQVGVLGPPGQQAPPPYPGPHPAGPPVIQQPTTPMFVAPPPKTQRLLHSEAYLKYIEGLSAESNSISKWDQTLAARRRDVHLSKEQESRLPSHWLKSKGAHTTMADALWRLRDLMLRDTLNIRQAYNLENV
Sequence of SWI/SNF-related matrix-associated actin-dependent regulator of chromatin subfamily A member 2 (Homo sapiens) (P51531 whole entry): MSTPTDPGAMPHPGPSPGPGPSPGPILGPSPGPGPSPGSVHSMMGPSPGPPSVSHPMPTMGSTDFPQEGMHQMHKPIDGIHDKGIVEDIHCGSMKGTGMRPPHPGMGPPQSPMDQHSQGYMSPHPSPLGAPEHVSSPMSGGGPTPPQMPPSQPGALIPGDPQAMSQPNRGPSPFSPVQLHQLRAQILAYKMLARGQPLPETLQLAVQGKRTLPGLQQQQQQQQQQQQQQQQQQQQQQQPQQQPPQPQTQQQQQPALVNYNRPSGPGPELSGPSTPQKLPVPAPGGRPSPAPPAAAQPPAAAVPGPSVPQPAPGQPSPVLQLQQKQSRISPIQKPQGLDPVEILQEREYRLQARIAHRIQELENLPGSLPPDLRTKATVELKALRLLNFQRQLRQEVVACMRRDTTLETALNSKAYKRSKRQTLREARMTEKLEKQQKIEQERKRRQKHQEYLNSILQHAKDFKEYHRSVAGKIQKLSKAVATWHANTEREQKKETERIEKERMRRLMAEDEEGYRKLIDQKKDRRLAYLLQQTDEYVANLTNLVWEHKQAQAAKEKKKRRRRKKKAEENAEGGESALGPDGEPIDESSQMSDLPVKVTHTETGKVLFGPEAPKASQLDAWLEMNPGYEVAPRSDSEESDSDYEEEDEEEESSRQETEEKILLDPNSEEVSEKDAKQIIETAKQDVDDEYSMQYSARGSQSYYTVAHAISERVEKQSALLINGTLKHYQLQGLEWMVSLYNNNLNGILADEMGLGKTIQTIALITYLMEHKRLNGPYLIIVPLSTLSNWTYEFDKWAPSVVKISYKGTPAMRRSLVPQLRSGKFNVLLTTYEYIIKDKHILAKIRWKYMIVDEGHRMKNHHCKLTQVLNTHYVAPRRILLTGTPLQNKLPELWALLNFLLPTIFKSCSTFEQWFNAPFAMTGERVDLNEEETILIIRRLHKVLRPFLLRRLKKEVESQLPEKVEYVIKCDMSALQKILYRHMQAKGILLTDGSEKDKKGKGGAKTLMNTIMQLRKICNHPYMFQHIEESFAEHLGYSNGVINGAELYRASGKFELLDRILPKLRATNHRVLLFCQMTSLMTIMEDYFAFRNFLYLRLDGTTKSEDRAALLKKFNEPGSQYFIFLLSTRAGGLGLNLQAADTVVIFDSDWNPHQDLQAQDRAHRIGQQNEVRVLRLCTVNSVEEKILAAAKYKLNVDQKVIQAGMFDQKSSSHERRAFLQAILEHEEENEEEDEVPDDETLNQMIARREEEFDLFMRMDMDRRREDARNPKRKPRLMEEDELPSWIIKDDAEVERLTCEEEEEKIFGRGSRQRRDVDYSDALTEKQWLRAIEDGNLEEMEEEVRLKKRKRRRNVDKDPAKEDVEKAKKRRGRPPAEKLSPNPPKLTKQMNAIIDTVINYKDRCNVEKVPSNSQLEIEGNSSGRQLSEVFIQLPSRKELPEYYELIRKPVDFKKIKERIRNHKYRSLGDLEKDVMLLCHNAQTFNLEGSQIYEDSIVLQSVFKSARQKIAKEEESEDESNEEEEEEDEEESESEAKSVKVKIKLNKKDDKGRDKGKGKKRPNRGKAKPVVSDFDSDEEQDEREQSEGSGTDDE

Kd [1] [nM] | Kd [2] [nM] | IC50 [3] [nM] | IC50 [4] [nM] | Activity [10] | Activity [11] | Activity [12] | Activity [13] | Activity [14] | Activity [15] | fold selectivity (Homo sapiens) | SMILES | chromatographic logD [5] | Ki [6] [nM] | Ki (Peregrin) [nM] | solubility kinetic [7] [µg/mL] | Papp [8] [×10⁻⁶ cm/s] | Ki [9] [nM] | Ki [16] [nM] | Ratio [17]
100 | 2 | – | – | – | – | – | – | – | – | – | C/C=C/Cn1cc(-c2cc(OC)c(C(=O)N3CCOCC3)cc2OC)c2cc[nH]c2c1=O | – | – | – | – | – | – | – | –
– | – | 200 | > 50100 | Active | Active | Active | Active | Active | Active | > 250 | Cc1c(NCc2ccccc2N2CCN(C)CC2)cnn(C)c1=O | 1.6 | 25.1 | 251 | 178 (≈ 544 µM) | 33 | 25100 | 39.8 | –
– | – | – | – | – | – | – | – | – | – | – | CCCCc1c(NCc2ccccc2N2CCN(C)CC2)cnn(C)c1=O | 3.5 | 501 | > 31600 | ≥ 228 | 25 | > 31600 | 63.1 | 0.52
